Reference: the OligoGym collection
Several values for one entry are separate records, joined by “and”; a condition that tells them apart may be missing. Identical values can stand only once. These antisense oligonucleotides have a phosphorothioate backbone; sugars and methylation of C are not fully specified.

Tests used:
Settings in all cases: ASO
PIK3CB = target: PIK3CB
MAP2K1 = target: MAP2K1
PIK3CD = target: PIK3CD
SMAD3 = target: SMAD3
Also: test concentration or dose not given here.

Sequence: AACATTTGGAGTGTCAACAT
- remaining target (mRNA or protein) (fraction of control) (PIK3CB): ≥ 1

Sequence: AACCAGAAGTCTACAGAT
- remaining target (mRNA or protein) (fraction of control) (MAP2K1): 0.69

Sequence: AAGAGTAGAATCTTGGCA
- remaining target (mRNA or protein) (fraction of control) (MAP2K1): 0.9

Sequence: AAGGATTTTCATACAATT
- remaining target (mRNA or protein) (fraction of control) (MAP2K1): 0.7

Sequence: AAGTTTTCAGGGATGGATGG
- remaining target (mRNA or protein) (fraction of control) (PIK3CB): ≥ 1

Sequence: AATGAGTGTCATCCCGCCCT
- remaining target (mRNA or protein) (fraction of control) (PIK3CD): 0.4 and 0.14

Sequence: AATTCCCCAGAAAGTGGCCA
- remaining target (mRNA or protein) (fraction of control) (PIK3CD): 0.74 and 0.5

Sequence: AATTGTGAACTTGCTTCCAT
- remaining target (mRNA or protein) (fraction of control) (PIK3CB): 0.74

Sequence: ACAGGCGGCAGTAGATGA
- remaining target (mRNA or protein) (fraction of control) (SMAD3): ≥ 1

Sequence: ACATTCGGGTCAACTGGT
- remaining target (mRNA or protein) (fraction of control) (SMAD3): 0.48

Sequence: ACCAATGTGCTTGGTCCCCA
- remaining target (mRNA or protein) (fraction of control) (PIK3CD): ≥ 1 and 0.37

Sequence: ACCAGCCCTGACATGAACTT
- remaining target (mRNA or protein) (fraction of control) (PIK3CB): 0.45

Sequence: ACCCACTTGAAAAGTGGAGA
- remaining target (mRNA or protein) (fraction of control) (PIK3CD): 0.99 and 0.8

Sequence: ACTAAGTATCCCACACAG
- remaining target (mRNA or protein) (fraction of control) (MAP2K1): 0.16

Sequence: ACTACTGCCTGTTGTCTTTG
- remaining target (mRNA or protein) (fraction of control) (PIK3CD): ≥ 1 and 0.44

Sequence: ACTATGTCTGTCACCAATCC
- remaining target (mRNA or protein) (fraction of control) (PIK3CB): 0.52

Sequence: ACTGCCTGTTGTCTTTGGAC
- remaining target (mRNA or protein) (fraction of control) (PIK3CD): 0.74 and 0.44

Sequence: ACTGGATATAAATCCCAGTG
- remaining target (mRNA or protein) (fraction of control) (PIK3CB): ≥ 1

Sequence: AGAACTGGTGTCTCTACT
- remaining target (mRNA or protein) (fraction of control) (SMAD3): 0.51

Sequence: AGACCAAATGCCATCCCA
- remaining target (mRNA or protein) (fraction of control) (SMAD3): 0.18

Sequence: AGACCCCTGTGGGCAGCAGG
- remaining target (mRNA or protein) (fraction of control) (PIK3CD): 0.78 and 0.46

Sequence: AGCAGCATGGGTTGGTGT
- remaining target (mRNA or protein) (fraction of control) (MAP2K1): 0.41

Sequence: AGCTGCCAGAACTCAGTCTA
- remaining target (mRNA or protein) (fraction of control) (PIK3CD): 0.53 and 0.48

Sequence: AGGAGGCCCAAAAGCGAC
- remaining target (mRNA or protein) (fraction of control) (MAP2K1): 0.65

Sequence: AGGCCGATGGTGGAGCAG
- remaining target (mRNA or protein) (fraction of control) (MAP2K1): 0.14

Sequence: AGGTATGGAGCCATCAGATG
- remaining target (mRNA or protein) (fraction of control) (PIK3CB): ≥ 1

Sequence: AGTAGCCAGCACAGGACAGT
- remaining target (mRNA or protein) (fraction of control) (PIK3CB): ≥ 1

Sequence: AGTAGGCACCAGGTGACCGC
- remaining target (mRNA or protein) (fraction of control) (PIK3CD): 0.77 and 0.67

Sequence: AGTCACAGAGCTTGATCT
- remaining target (mRNA or protein) (fraction of control) (MAP2K1): 0.31

Sequence: AGTCCACCCCAGGGGGCATC
- remaining target (mRNA or protein) (fraction of control) (PIK3CD): ≥ 1 and 0.45

Sequence: AGTCGATGAGCTGCCCGC
- remaining target (mRNA or protein) (fraction of control) (MAP2K1): 0.24

Sequence: ATGAACAGCTACGATGAGCT
- remaining target (mRNA or protein) (fraction of control) (PIK3CB): 0.73

Sequence: ATGAAGGAGGCGTTTCCGTT
- remaining target (mRNA or protein) (fraction of control) (PIK3CD): 0.81 and 0.32

Sequence: ATGCAAACATATAGGAGTCA
- remaining target (mRNA or protein) (fraction of control) (PIK3CB): ≥ 1

Sequence: ATTAAGCATTTATTCACA
- remaining target (mRNA or protein) (fraction of control) (MAP2K1): ≥ 1

Sequence: ATTAGTGGATGATCACCAAA
- remaining target (mRNA or protein) (fraction of control) (PIK3CB): 0.99

Sequence: ATTCCCATGCCGTCGTAAAA
- remaining target (mRNA or protein) (fraction of control) (PIK3CB): ≥ 1

Sequence: ATTGAGTGCTTCAACCTGCT
- remaining target (mRNA or protein) (fraction of control) (PIK3CB): ≥ 1

Sequence: CAAAATCCACTTCCTCAG
- remaining target (mRNA or protein) (fraction of control) (MAP2K1): 0.28

Sequence: CACACAGTTCCGGATATACT
- remaining target (mRNA or protein) (fraction of control) (PIK3CB): ≥ 1

Sequence: CACCCAAACATCAGCTCC
- remaining target (mRNA or protein) (fraction of control) (MAP2K1): 0.41

Sequence: CACCGCCCAGATGTCAAGGA
- remaining target (mRNA or protein) (fraction of control) (PIK3CB): 0.5

Sequence: CAGCCGAGAGCCAGGTGCAG
- remaining target (mRNA or protein) (fraction of control) (PIK3CD): ≥ 1 and 0.59

Sequence: CAGCGCAAAGAGAGTGATGA
- remaining target (mRNA or protein) (fraction of control) (PIK3CB): ≥ 1

Sequence: CAGGGGGCATCCTGCGTTGT
- remaining target (mRNA or protein) (fraction of control) (PIK3CD): 0.85 and ≥ 1

Sequence: CATCTGGAGGAGGGATGG
- remaining target (mRNA or protein) (fraction of control) (MAP2K1): 0.71

Sequence: CATGAACCATGAGTTGCT
- remaining target (mRNA or protein) (fraction of control) (MAP2K1): 0.24

Sequence: CCAAGTTATTATGTGCTG
- remaining target (mRNA or protein) (fraction of control) (SMAD3): ≥ 1

Sequence: CCACCCCAGGGGGCATCCTG
- remaining target (mRNA or protein) (fraction of control) (PIK3CD): ≥ 1 and 0.37

Sequence: CCAGGGCTGGGAGGAGCCAC
- remaining target (mRNA or protein) (fraction of control) (PIK3CD): 0.91 and 0.69

Sequence: CCATTTCTCCTCCTGCCC
- remaining target (mRNA or protein) (fraction of control) (SMAD3): 0.62

Sequence: CCCAGCTCACTGATCTTC
- remaining target (mRNA or protein) (fraction of control) (MAP2K1): 0.89

Sequence: CCCCAGGGGGCATCCTGCGT
- remaining target (mRNA or protein) (fraction of control) (PIK3CD): 0.81 and 0.96

Sequence: CCCCGGTCTTAAGCTGGTCC
- remaining target (mRNA or protein) (fraction of control) (PIK3CD): 0.31 and 0.42

Sequence: CCCCTACCATACTTGATG
- remaining target (mRNA or protein) (fraction of control) (SMAD3): 0.38

Sequence: CCCCTCCGATGTAGTAGA
- remaining target (mRNA or protein) (fraction of control) (SMAD3): 0.54

Sequence: CCTCCCCATCCCAAGTCT
- remaining target (mRNA or protein) (fraction of control) (SMAD3): 0.59

Sequence: CCTCCTCTTGGGCCCAGGGC
- remaining target (mRNA or protein) (fraction of control) (PIK3CD): ≥ 1 and 0.71

Sequence: CCTCGGGAGGAGAACAGTCT
- remaining target (mRNA or protein) (fraction of control) (PIK3CD): ≥ 1 and 0.45

Sequence: CCTGTTGACATTGGAGAG
- remaining target (mRNA or protein) (fraction of control) (SMAD3): 0.72

Sequence: CGATGTAGTAGAGCCGCA
- remaining target (mRNA or protein) (fraction of control) (SMAD3): 0.42

Sequence: CGGCCGCTCGTGCCGAATTC
- remaining target (mRNA or protein) (fraction of control) (PIK3CD): 0.96 and ≥ 1

Sequence: CGGCTGCTCCAGGGACCACA
- remaining target (mRNA or protein) (fraction of control) (PIK3CD): 0.63 and 0.38

Sequence: CGTTGCTCGTCCTCCAGCTC
- remaining target (mRNA or protein) (fraction of control) (PIK3CD): 0.47 and 0.27

Sequence: CTACCCACATTCACCAAA
- remaining target (mRNA or protein) (fraction of control) (MAP2K1): 0.72

Sequence: CTAGGATGTTGGAGGGCT
- remaining target (mRNA or protein) (fraction of control) (MAP2K1): 0.27

Sequence: CTCCCCAGCCTTTGACGA
- remaining target (mRNA or protein) (fraction of control) (SMAD3): 0.54

Sequence: CTCTCTGGTAGTGGTAGG
- remaining target (mRNA or protein) (fraction of control) (SMAD3): 0.8

Sequence: CTCTGGGTTTGCTCGTGT
- remaining target (mRNA or protein) (fraction of control) (SMAD3): 0.56
